One data set has as its system Anas platyrhynchos. To be noted: reproductive.
In the next data set the test system is Apis mellifera. To be noted: acute, mortality.
The test system of the next data set is Colinus virginianus. The conditions noted are these: acute, oral.
The test system of another data set is Folsomia candida. To be noted: chronic/long-term.
Another data set relates to Oncorhynchus mykiss. To be noted: for LC50: acute, duration: 96 hours, mortality; for NOEC: chronic/long-term.
Another data set deals with Rattus norvegicus. The conditions noted are these: for LD50: acute; for NOAEL: reproduction developmental.
In a further data set the test system is Tagia sp. To be noted: for LC50: acute, mortality.
In another data set the test system is Typhlodromus pyri. Put plainly: LR50; higher = less toxic. To be noted: acute; duration: 14 days; mortality.
The next data set relates to Daphnia magna. The conditions noted are these: chronic/long-term; duration: 21 days.

Values joined by “and” are separate entries in the source; they are usually repeats but may differ in a detail not shown here. Equal values may be shown once.

As usually defined, the NOAEL is the highest tested level that showed no adverse finding. Regarding `CCCCCCCCSC(=O)Oc1cc(Cl)nnc1-c1ccccc1` [Pyridate], the NOAEL stood at 100 mg/kg in the data set with Anas platyrhynchos, 18.8 mg/kg-day with Rattus norvegicus, 165 mg/kg-day in the data set with Rattus norvegicus (body weight) and 3.6 mg/kg-day in the data set on Rattus norvegicus (organ weight). The LD50 with Apis mellifera (dermal) was over 100 µg/piece; in the data set with Apis mellifera (oral, unspecified), over 110 µg/piece; with Colinus virginianus it was 1270 mg/kg; in the data set with Rattus norvegicus (oral, mortality), over 2000 mg/kg. The LC50 with Colinus virginianus (diet) is over 1250 mg/kg; in the data set with Oncorhynchus mykiss, > 1.01 µg/mL and 1.19 µg/mL; with Tagia sp., 400 mg/kg. In the data set on Folsomia candida, the NOEC was determined as 112 mg/kg. Further, the LR50 in the data set on Typhlodromus pyri is over 1360 g/ha.
In the case of `O=c1cc(Cl)[nH]nc1-c1ccccc1` [Pyridafol], the NOEC with Daphnia magna was 5 mg/L; in the data set on Oncorhynchus mykiss (duration: 21 days), over 17 mg/L; in the data set on Oncorhynchus mykiss (duration: 69 days, other), 0.1 mg/L; with Tagia sp. (chronic/long-term) it was 3.25 mg/kg. For the same compound, the results for the LC50 with Oncorhynchus mykiss and with Tagia sp. were over 16.2 µg/mL and 348 mg/kg, respectively. Further, in the data set on Rattus norvegicus (F), the LD50 is 1420 mg/kg.

These data come from EPA's ToxValDB 9.5 (doi:10.2903/j.efsa.2014.3801).
